From US20060014717A1, “Therapeutic compositions for use in prophylaxis or treatment of diarrheas” (priority 2002, published 2006)

Key:
[1] = system: E. coli EIEC CCUG 38092; assay: Chromatogram binding assay, binding specificities of type strains; parameters: species or system Escherichia coli; conditions: prolonged sub-culture, 4 μg per lane
Protocol: Culture Conditions and Labeling—The E. coli strains were cultured on Luria-agar with the addition of 10 μl ^35S-methionine (400 tici; Amersham Pharmacia Biotech, U.K.) at 37° C. for 12 h. The bacteria were harvested by scraping, washed three times with phosphate-buffered saline (PBS), pH 7.3, and thereafter resuspended in PBS (with or without 1% mannose (w/v)) to 1×10^8 CFU/ml. The specific activities of the suspensions were approximately 1 cpm per 100 bacteria.
Thin-Layer Chromatography—Thin-layer chromatography of glycosphingolipids was performed on glass- or aluminum-backed silica gel 60 HPTLC plates (Merck, Darmstadt, Germany), using chloroform/methanol/water 60:35:8 (by volume) as solvent system. Chemical detection was done with anisaldehyde (6).
(§1) Glycosphingolipid Binding Assays—Binding of ^35S-labeled bacteria to glycosphingolipids on thin-layer chromatograms was done as reported (7). Dried chromatograms were dipped for 1 min in diethylether/n-hexane (1:5, by volume) containing 0.5% (w/v) polyisobutylmethacrylate (Aldrich Chem. Comp. Inc., Milwaukee, Wis.). After drying, the chromatograms were soaked in PBS containing 2% bovine serum albumin (w/v), 0.1% NaN3 (w/v) and 0.1% Tween 20 (by volume) for 2 h at room temperature. The chromatograms were subsequentely covered with radiolabeled bacteria diluted in PBS (2-5×10^6 cpm/ml). Incubation was done for 2 h at room temperature, followed by repeated washings with PBS. The chromatograms were thereafter autoradiographed using XAR-5 X-ray films (Eastman Kodak, Rochester, N.Y.) for 12 h. Autoradiograms were replicated using a CCD camera (Dage-MTI, Inc., Michigan City, Ind.), and analysis of the images was performed using the public domain NIH Image program (developed at the U.S. National Institutes of Health, and available at http://rsb.info.nih.eov/nih-imaee/).
However, several wild type diarrheagenic E. coli strains bind to sialic acid (see e.g. FIG. 6 and FIG. 3). […]

[2] = system: EPEC strain; conditions: listed in decreasing order of activity; cited from earlier work
[3] = system: H. pylori CCUG 17874; assay: Binding of 35S-labeled Helicobacter species to glycosphingolipids on thin-layer chromatograms; parameters: species or system Helicobacter pylori; key: An significant darkening on the autoradiogram when 2 μg of the glycosphingolipid was applied on the thin-layer plate is denoted by +; − denotes no binding; conditions: 2 μg (40 μg for the glycosphingolipid fraction) on TLC plates
Excerpt: (§2) Gastric species examined in the present study included, Helicobacter mustelae ferret isolates from the National Collection of Type Cultures (NCTC) and the Culture Collection of the University of Gothenberg (CCUG), NCTC 12198/CCUG 25175 (equivalent strains from different sources tested), CCUG 23950 and CCUG 23951, Helicobacterfelis CCUG 28539 from a cat, in addition, H. pylori strains CCUG 17874, CCUG 17875 and a clinical isolate 119/95 were used. Enterohepatic helicobacters of animal origin were purchased from the CCUG including, Helicobacter canes CCUG 33835, Helicobacter bilis CCUG 38995, Helicobacter hepaticus CCUG 33637, and Helicobacterfennelliae (CCUG 18820).
(§3) Binding of Helicobacter spp. to glycosphingolipids, both acid and non-acidfractions. Glycosphingolipids were isolated by standard procedures (Karlsson, 1987). The identity of the purified glycosphingolipids was confirmed by mass spectrometry (Samuelsson et al., 1990), proton NMR spectroscopy (Koerner et al., 1983) and degradation studies (Stellner et al., 1973; Yang and Hakomori, 1971).
(§4) Mixtures of glycosphingolipids (40 μg/lane) or pure compounds (2 μg/lane) were subsequently separated using thin-layer chromatography (TLC) on glass- or aluminum-backed silica gel 60 HPTLC plates (Merck, Darmstadt, Germany), with chloroform/methanot/water (60:35:8, by volume) as solvent system. Chemical detection was accomplished by anisaldehyde (Waldi, 1962). Helicobacter spp. were subjected to ^35S-labeling (Angstrom et al., 1998) and suspended in PBS (10^8 CFU/ml) with a specific activity of approximately 1 cpm per 100 organisms. Binding of the labeled-bacteria to glycosphingolipids separated by TLC was achieved using a bacterial-overlay technique coupled with autoradiography detection using XAR-5 X-ray films (Eastman Kodak, Rochester, N.Y.) as previously described (Hansson et al., 1985).

[4] = system: H. pylori CCUG 17875; assay: as above; parameters: species or system Helicobacter pylori; key: An significant darkening on the autoradiogram when 2 μg of the glycosphingolipid was applied on the thin-layer plate is denoted by +; − denotes no binding; conditions: 2 μg (40 μg for the glycosphingolipid fraction) on TLC plates
Excerpt: as §2, §3, §4

[5] = system: H. felis CCUG 28539; assay: as above; parameters: species or system Helicobacter felis; key: An significant darkening on the autoradiogram when 2 μg of the glycosphingolipid was applied on the thin-layer plate is denoted by +; − denotes no binding; conditions: 2 μg (40 μg for the glycosphingolipid fraction) on TLC plates
Excerpt: as §2, §3, §4

[6] = system: H. canis CCUG 33835; assay: as above; parameters: species or system Helicobacter canis; key: An significant darkening on the autoradiogram when 2 μg of the glycosphingolipid was applied on the thin-layer plate is denoted by +; − denotes no binding; conditions: 2 μg (40 μg for the glycosphingolipid fraction) on TLC plates
Excerpt: as §2, §3, §4

[7] = system: H. hepaticus CCUG 33637; assay: as above; parameters: species or system Helicobacter hepaticus; key: An significant darkening on the autoradiogram when 2 μg of the glycosphingolipid was applied on the thin-layer plate is denoted by +; − denotes no binding; conditions: 2 μg (40 μg for the glycosphingolipid fraction) on TLC plates
Excerpt: as §2, §3, §4

[8] = system: H. mustelae 25715; assay: as above; parameters: species or system Helicobacter mustelae; key: An significant darkening on the autoradiogram when 2 μg of the glycosphingolipid was applied on the thin-layer plate is denoted by +; − denotes no binding; conditions: 2 μg (40 μg for the glycosphingolipid fraction) on TLC plates
Excerpt: as §2, §3, §4

[9] = system: H. mustelae CCUG 23950 & 23951; assay: as above; parameters: species or system Helicobacter mustelae; key: An significant darkening on the autoradiogram when 2 μg of the glycosphingolipid was applied on the thin-layer plate is denoted by +; − denotes no binding; conditions: 2 μg (40 μg for the glycosphingolipid fraction) on TLC plates
Excerpt: as §2, §3, §4

[10] = system: H. bilis CCUG 38995; assay: as above; parameters: species or system Helicobacter bilis; key: An significant darkening on the autoradiogram when 2 μg of the glycosphingolipid was applied on the thin-layer plate is denoted by +; − denotes no binding; conditions: 2 μg (40 μg for the glycosphingolipid fraction) on TLC plates
Excerpt: as §2, §3, §4

[11] = system: H. pylori CCUG 17875; assay: as above; parameters: species or system Helicobacter pylori
Excerpt: as §2, §3
Mixtures of glycosphingolipids (40 μg/lane) or pure compounds (2 μg/lane) were subsequently separated using thin-layer chromatography (TLC) on glass- or aluminum-backed silica gel 60 HPTLC plates (Merck, Darmstadt, Germany), with chloroform/methanot/water (60:35:8, by volume) as solvent system. […]

[12] = system: H. pylori CCUG 17875; assay: as above; parameters: species or system Helicobacter pylori; key: + denotes a significant darkening on the autoradiogram when 2 μg (or 40 μg in the case of the last sample) was applied to TLC plates; − denotes no binding; conditions: 2 μg (40 μg for the glycosphingolipid fraction) on TLC plates
Excerpt: as §2, §3, §4

[13] = system: EPEC; conditions: 100 mM; cited from earlier work
[14] = system: enteropathogenic wild type E. coli strain 37; assay: Inhibition with soluble oligosaccharides in the chromatogram binding assay; parameters: species or system Escherichia coli
Protocol: FIG. 5. […] Radiolabeled wild type E. coli strain 37 was incubated with a mixture of globotriaose (1.5 mM), neolactotetraose (1.5 mM) and 6′sialyllactose (1.5 mM) in PBS for 1 h at room temperature. Thereafter the suspensions were utilized in the chromatogram binding assay. (A) Binding of radiolabeled E. coli strain 37. (B) Binding of E. coli strain 37 incubated with a mixture of globotriaose, neolactotetraose and 6′sialyllactose. Lanes 1-4 were serial dilutions of globotriaosylceramide (Galα4Galβ4Glc β1Cer) and NeuGc-neolactohexaosylceramide (NeuGcα3Galβ4GlcNAcβ3Gaβ4GlcNacβ3Galβ4Glcβ1Cer). Lane 1, 2 μg of each compound, lane 2, 1 μg of each compound, lane 3, 0.5 μg of each compound, lane 4, 0.2 μg of each compound. Lanes 5-8 were serial dilutions of NeuGc-neolactotetraosylceramide (NeuGcα3Galβ4GlcNAcβ3Galβ4Glcβ1Cer). Lane 5, 2 μg of each compound, lane 6, 1 μg of each compound, lane 7, 0.5 μg of each compound, lane 8, 0.2 μg of each compound. The glycosphingolipids were separated on aluminium-packed silica gel plates, using chloroform/methanol/water (60:35:8, by volume) as solvent system, and the binding assay was performed as described under “Experimental procedures”. Autoradiography was for 12 h.
(C) Binding curves obtained after quantification of binding by densitometry. The autoradiograms in (A) and (B) were analyzed using the NIH Image program. […]

[15] = system: diarrheagenic E. coli; assay: as above; parameters: species or system Escherichia coli
Protocol: as §1
The final concentrations of the inhibiting oligosaccharides on the TLC-plate were 0.3 mM. […] Thereafter the chromatogram binding assay was performed as described above.

[16] = system: shiga toxina and shigalike toxin; conditions: cited from earlier work
[17] = system: Helicobacter pylori; conditions: cited from earlier work
[18] = system: Helicobacter pylori; conditions: in vivo; cited from earlier work

| Compound | Binding of glycosphingolipids to H.pylori 17874 [3] | Binding of glycosphingolipids to H.felis 28539 [5] | Binding of glycosphingolipids to H.canis 33835 [6] | Binding of glycosphingolipids to H.hepaticus 33637 [7] | Binding of glycosphingolipids to H.mustelae 25715 [8] | Binding of glycosphingolipids to H.mustelae 23950 & 23951 [9] | Binding of glycosphingolipids to H.bilis 38995 [10] | further results |
| --- | --- | --- | --- | --- | --- | --- | --- | --- |
| GalNAcβ3Galα4Galβ4Glcβ1Cer [No. 12] | − | − | − | − | − | − | − | Binding of E. coli CCUG 38092 to pure glycosphingolipids after sub-culture [1]: remain; Binding of an EPEC strain to commercial glycolipids [2]: observed to bind; Binding of glycosphingolipids to H.pylori 17875 [4]: − |
| Fucα2Galβ3(Fucα4)GlcNAcβ3Galβ4Glcβ1Cer [No. 25] | − | − | − | − | − | − | − | Binding of H. pylori CCUG 17875 to glycosphingolipid, in words [11]: only observed for H. pylori CCUG 17875; Binding of glycosphingolipids to H.pylori 17875 [12]: + |
| CC(=O)N[C@H]1C(O)O[C@H](CO)[C@H](O)[C@@H]1O (stereo partly shown) [N-acetylgalactosamine] |  |  |  |  |  |  |  | Inhibition of EPEC binding to HeLa cells [13]: inhibited |
| CC(=O)NC1C(O)CC(OCC2OC(OC3C(CO)OC(O)C(O)C3O)C(O)C(O)C2O)(C(=O)O)OC1C(O)C(O)CO (stereo not shown) [6′sialyllactose, NeuNAcα6Galβ4Glc] |  |  |  |  |  |  |  | Inhibition of binding to NeuGcα3-neolactotetraosylceramide [14]: inhibited |
| OC[C@H]1O[C@H](O[C@@H]2[C@H](O)[C@@H](O)[C@H](O[C@H]3[C@H](O)[C@@H](O)C(O)O[C@@H]3CO)O[C@@H]2CO)[C@H](O)[C@@H](O)[C@H]1O (stereo partly shown) [globotriaose, Galα4Galβ4Glc] |  |  |  |  |  |  |  | Inhibition of non-toxigenic diarrhea causing E. coli by monovalent oligosaccharide ([15]; concentration of 0.3 mM): effect is seen; Inhibition of binding to globotriaosylceramide ([15]; preincubation 1.5 mM, final concentration 0.3 mM): Inhibition of binding; Inhibition of toxin with monovalent inhibitor [16]: Minor effects |
| Galβ3(Fucα4)GlcNAcβ3Galβ4Glcβ1Cer [No. 24] | − | − | − | − | − | − | − | Binding of glycosphingolipids to H.pylori 17875 [4]: − |
| CC(=O)N[C@H]1[C@H]([C@H](O)[C@H](O)CO)O[C@@](O[C@H]2[C@@H](O)[C@@H](CO)O[C@@H](O[C@H]3[C@H](O)[C@@H](O)C(O)O[C@@H]3CO)[C@@H]2O)(C(=O)O)C[C@@H]1O (stereo partly shown) [sialyl-lactose] |  |  |  |  |  |  |  | Inhibition of Helicobacter pylori binding to human gastrointestinal cell lines [17]: inhibits; Efficacy in a rhesus monkey animal model of the infection [18]: effective |
